Consider seven compounds from ChEMBL document CHEMBL2169789, “Potent HGF/c-Met axis inhibitors from Eucalyptus globulus: the coupling of phloroglucinol and sesquiterpenoid is essential for the activity” (J Med Chem, 2012).

Activity calls are given as the source filed them. No cut-off for these calls is given here.

The target in test [1] is T1, Hepatocyte growth factor receptor (Homo sapiens, UniProt P08581). Briefly: Inhibition of c-MET assessed as inhibition of HGF-induced phosphorylation at 5 uM by Western blotting analysis.
Test [2] addresses Hepatocyte growth factor receptor (Canis lupus familiaris) (UniProt Q75ZY9). Briefly: Inhibition of HGF-induced phosphorylation of c-MET in MDCK cells after 2 hrs by Western blotting analysis. The class given is cell-based.
The target is the same in test [3]. Description: Inhibition of HGF-induced phosphorylation of c-MET in MDCK cells at 5 uM after 2 hrs by Western blotting analysis. The class given is cell-based.
In test [4] the target is T1, Hepatocyte growth factor receptor. Description: Inhibition of HGF-induced phosphorylation of c-MET in human A549 cells after 2 hrs by Western blotting analysis. The class given is cell-based.
Test [5] has the same target. Description: Inhibition of HGF-induced phosphorylation of c-MET in human A549 cells at 5 uM after 2 hrs by Western blotting analysis. The class given is cell-based.
The target in test [6] is Hepatocyte growth factor receptor (Canis lupus familiaris) (UniProt Q75ZY9). Description: Inhibition of c-MET in MDCK cells assessed as inhibition of HGF-induced branching morphogenesis after 5 days by microscopic analysis. It is filed as cell-based.
The target is the same in test [7]. Description: Inhibition of c-MET in MDCK cells assessed as inhibition of HGF-induced urokinase activity at 10 uM after 24 hrs. It is filed as cell-based.
The target is the same in test [8]. Description: Inhibition of c-MET in MDCK cells assessed as inhibition of HGF-induced urokinase activity after 24 hrs. It is filed as cell-based.
Test [9] shares this target. Description: Inhibition of c-MET in MDCK cells assessed as inhibition of HGF-induced cell motility at 10 uM by wound healing assay. The class given is cell-based.
For test [10] the target is unchanged. Description: Inhibition of c-MET in MDCK cells assessed as inhibition of HGF-induced cell motility by wound healing assay. It is filed as cell-based.
The target is the same in test [11]. Briefly: Inhibition of c-MET in MDCK cells assessed as inhibition of HGF-induced cell scattering at 10 uM after 24 hrs by microscopic analysis. It is filed as cell-based.
The target is the same in test [12]. Description: Inhibition of c-MET in MDCK cells assessed as inhibition of HGF-induced cell scattering after 24 hrs by microscopic analysis. The class given is cell-based.
The target of test [13] is T1, Hepatocyte growth factor receptor. Description: Inhibition of c-MET by ELISA assay.
Test [14] shares this target. Briefly: Inhibition of c-MET in human MKN45 cells assessed as reduction of phosphorylation at 20 uM after 2 hrs by Western blotting analysis. It is filed as cell-based. The conditions noted are these: MKN-45.
In test [15] the target is Hepatocyte growth factor receptor (Mus musculus) (UniProt P16056). Description: Inhibition of c-MET in mouse NIH3T3 cells assessed as reduction of TPR-Met phosphorylation at 20 uM after 2 hrs by Western blotting analysis. It is filed as cell-based.
For test [16], the target named is T1, Hepatocyte growth factor receptor. Description: Inhibition of HGF-induced phosphorylation of c-MET in human DU145 cells at 5 uM after 2 hrs by Western blotting analysis. The class given is cell-based. The conditions noted are these: DU-145.
For test [17] the target is unchanged. Description: Inhibition of HGF-induced phosphorylation of c-MET in human DU145 cells after 2 hrs by Western blotting analysis. The class given is cell-based. The conditions noted are these: DU-145.
Test [18] shares this target. Description: Inhibition of HGF-induced phosphorylation of c-MET in human NCI-H441 cells at 5 uM after 2 hrs by Western blotting analysis. It is filed as cell-based.
The target is the same in test [19]. Briefly: Inhibition of HGF-induced phosphorylation of c-MET in human NCI-H441 cells after 2 hrs by Western blotting analysis. It is filed as cell-based.

T1 sequence (P08581 whole entry): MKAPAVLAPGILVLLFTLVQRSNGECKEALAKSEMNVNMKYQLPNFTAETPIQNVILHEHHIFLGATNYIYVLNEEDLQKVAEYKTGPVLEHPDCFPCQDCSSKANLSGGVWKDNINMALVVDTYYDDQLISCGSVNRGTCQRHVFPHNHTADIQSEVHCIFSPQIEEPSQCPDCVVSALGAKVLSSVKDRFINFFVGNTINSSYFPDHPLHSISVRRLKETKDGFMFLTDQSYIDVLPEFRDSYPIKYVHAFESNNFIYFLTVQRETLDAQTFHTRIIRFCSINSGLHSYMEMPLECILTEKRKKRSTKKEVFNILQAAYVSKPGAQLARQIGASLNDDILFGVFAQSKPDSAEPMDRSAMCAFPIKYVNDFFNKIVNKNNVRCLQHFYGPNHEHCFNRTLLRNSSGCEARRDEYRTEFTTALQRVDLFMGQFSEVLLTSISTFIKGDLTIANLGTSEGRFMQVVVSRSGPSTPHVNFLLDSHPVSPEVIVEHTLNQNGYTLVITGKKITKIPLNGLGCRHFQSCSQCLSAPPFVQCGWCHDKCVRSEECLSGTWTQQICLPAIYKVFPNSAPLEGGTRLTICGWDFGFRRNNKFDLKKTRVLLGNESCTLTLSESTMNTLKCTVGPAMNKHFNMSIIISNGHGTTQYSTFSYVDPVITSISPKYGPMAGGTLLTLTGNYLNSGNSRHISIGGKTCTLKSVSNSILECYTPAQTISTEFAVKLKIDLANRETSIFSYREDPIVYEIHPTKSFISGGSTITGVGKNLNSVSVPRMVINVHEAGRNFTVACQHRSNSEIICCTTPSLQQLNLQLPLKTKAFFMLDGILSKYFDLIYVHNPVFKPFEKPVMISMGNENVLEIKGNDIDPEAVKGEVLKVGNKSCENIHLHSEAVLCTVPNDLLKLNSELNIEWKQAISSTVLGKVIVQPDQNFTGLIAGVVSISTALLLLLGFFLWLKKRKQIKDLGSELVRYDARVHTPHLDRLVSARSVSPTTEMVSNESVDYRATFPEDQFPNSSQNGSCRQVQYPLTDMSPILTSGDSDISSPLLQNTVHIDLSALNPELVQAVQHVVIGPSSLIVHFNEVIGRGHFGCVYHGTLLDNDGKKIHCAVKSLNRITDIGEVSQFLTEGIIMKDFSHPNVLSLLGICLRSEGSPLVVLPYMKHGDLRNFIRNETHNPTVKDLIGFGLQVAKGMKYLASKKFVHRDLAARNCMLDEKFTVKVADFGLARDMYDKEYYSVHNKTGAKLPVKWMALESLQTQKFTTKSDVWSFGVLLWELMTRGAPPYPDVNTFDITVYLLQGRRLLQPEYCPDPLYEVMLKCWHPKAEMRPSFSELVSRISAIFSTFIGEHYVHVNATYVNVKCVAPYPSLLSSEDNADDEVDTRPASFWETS
Chain of Hepatocyte growth factor receptor (Canis lupus familiaris) (Q75ZY9 whole entry): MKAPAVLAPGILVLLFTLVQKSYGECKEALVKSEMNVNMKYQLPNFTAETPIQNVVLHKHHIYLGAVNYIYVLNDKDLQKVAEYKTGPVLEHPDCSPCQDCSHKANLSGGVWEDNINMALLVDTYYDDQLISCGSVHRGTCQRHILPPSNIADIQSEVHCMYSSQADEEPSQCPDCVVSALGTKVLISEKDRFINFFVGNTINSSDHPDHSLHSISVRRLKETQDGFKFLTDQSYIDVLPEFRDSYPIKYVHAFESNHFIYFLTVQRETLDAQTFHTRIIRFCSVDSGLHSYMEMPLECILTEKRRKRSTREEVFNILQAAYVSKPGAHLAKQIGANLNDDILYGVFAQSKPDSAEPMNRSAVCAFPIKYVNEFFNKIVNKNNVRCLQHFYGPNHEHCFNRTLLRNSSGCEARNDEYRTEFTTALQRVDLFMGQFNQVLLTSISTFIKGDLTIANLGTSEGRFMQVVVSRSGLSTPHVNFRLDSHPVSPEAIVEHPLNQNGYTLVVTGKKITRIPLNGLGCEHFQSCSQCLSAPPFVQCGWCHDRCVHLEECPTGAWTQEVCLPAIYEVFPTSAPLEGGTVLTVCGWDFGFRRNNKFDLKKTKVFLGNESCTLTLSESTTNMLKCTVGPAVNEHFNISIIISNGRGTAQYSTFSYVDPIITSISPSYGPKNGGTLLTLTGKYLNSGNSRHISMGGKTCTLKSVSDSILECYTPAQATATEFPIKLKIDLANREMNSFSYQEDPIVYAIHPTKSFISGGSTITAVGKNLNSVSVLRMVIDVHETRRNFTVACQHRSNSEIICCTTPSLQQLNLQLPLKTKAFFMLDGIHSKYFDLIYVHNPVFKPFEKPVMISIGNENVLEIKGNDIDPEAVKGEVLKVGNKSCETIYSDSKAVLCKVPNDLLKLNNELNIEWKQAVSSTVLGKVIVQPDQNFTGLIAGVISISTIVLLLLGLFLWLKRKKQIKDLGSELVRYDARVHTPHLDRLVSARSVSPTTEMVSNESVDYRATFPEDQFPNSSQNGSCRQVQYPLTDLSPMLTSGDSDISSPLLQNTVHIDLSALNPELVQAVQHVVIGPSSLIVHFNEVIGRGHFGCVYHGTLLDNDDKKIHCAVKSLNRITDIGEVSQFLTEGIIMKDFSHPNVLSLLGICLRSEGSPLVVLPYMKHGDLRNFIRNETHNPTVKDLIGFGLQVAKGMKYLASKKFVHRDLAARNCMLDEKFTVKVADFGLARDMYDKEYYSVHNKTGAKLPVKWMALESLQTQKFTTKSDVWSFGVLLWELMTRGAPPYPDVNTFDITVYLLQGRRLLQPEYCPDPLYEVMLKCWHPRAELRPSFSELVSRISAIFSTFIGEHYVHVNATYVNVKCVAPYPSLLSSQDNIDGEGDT
Chain of Hepatocyte growth factor receptor (Mus musculus) (P16056 whole entry): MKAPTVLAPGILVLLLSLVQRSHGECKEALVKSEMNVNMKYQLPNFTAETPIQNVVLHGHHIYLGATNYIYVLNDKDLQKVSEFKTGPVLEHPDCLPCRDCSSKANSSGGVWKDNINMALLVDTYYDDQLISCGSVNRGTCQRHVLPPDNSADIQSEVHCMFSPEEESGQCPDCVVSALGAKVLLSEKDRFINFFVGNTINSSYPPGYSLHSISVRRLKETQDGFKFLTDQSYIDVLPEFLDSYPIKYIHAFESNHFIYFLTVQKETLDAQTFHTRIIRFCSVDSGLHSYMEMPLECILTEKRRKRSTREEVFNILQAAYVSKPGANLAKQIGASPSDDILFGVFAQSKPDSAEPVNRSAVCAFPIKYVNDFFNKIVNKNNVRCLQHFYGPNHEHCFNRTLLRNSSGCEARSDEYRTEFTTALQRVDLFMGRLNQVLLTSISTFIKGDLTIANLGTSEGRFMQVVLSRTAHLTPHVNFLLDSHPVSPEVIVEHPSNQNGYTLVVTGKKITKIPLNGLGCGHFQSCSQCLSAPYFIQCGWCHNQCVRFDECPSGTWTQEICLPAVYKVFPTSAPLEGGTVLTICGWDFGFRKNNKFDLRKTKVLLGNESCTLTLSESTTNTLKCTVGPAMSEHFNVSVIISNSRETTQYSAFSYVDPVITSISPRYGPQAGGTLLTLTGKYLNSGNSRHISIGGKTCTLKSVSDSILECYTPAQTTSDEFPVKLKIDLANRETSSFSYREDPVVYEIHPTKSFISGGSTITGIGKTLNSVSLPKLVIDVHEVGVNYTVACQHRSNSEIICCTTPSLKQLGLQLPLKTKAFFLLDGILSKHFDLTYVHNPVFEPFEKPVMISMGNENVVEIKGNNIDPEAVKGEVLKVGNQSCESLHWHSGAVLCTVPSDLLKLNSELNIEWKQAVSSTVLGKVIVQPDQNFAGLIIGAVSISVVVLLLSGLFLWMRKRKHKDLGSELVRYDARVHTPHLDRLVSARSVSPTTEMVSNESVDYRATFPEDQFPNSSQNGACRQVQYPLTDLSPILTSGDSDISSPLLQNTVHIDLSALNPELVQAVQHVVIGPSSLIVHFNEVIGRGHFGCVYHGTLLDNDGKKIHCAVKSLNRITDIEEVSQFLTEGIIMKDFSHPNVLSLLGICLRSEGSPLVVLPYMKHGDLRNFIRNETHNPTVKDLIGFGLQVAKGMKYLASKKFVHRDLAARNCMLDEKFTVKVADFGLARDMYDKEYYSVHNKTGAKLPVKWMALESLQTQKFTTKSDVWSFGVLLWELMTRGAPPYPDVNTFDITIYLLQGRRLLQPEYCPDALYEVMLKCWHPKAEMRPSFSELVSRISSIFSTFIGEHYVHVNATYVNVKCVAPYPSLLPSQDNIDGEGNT

For the compound `CC(C)CC(=O)c1c(O)c(C=O)c(O)c(C=O)c1O`, in [1], the inhibition result was “inactive”.

Consider `CC(C)C[C@@H](c1c(O)c(C=O)c(O)c(C=O)c1O)[C@@]1(C)CC[C@@H]2[C@@H]1[C@H]1[C@@H](CC[C@@]2(C)O)C1(C)C`, for which the inhibition entry in test [1] was “Active”.

As for `CC(C)C[C@H](c1c(O)c(C=O)c(O)c(C=O)c1O)[C@@]1(C)CC[C@@H]2[C@@H]1[C@H]1[C@@H](CC[C@@]2(C)O)C1(C)C`, the inhibition result in [1] is “Active”.

For the compound `CC1(C)[C@H]2[C@H]3[C@@H](CC[C@]3(C)O)[C@](C)(O)CC[C@H]21`, the inhibition entry in test [1] is “inactive”.

Regarding `C[C@@H]1CC[C@@H]2[C@@H]1[C@H]1[C@@H](CC[C@@]2(C)O)C1(C)C`, the inhibition result in test [1] was “inactive”.

With `Cc1c(O)c(C=O)c(O)c(C(=O)CC(C)C)c1O`, the inhibition result in [1] is “inactive”.

On to `CC(C)CC(=O)c1c(O)c(C=O)c(O)c(C[C@@]2(C)CC[C@@H]3[C@@H]2[C@H]2[C@@H](CC[C@@]3(C)O)C2(C)C)c1O` [EUCALYPTIN A], for which the inhibition entry in test [2] was “Dose-dependent effect”; in test [3], over 50%; in test [4], “Dose-dependent effect”; in test [5] it was over 50%; in test [7] it was 80%; in [8], “Dose-dependent effect”. Also, the inhibition entry in test [10] is “Dose-dependent effect”; in test [12], “Dose-dependent effect”; in [16] it was over 50%; in test [17], “Dose-dependent effect”; in test [18], over 50%; in test [19], “Dose-dependent effect”. The inhibition result in test [1], in [6], in [9] and in test [11] was “Active” throughout. The IC50 in test [13] is over 50 µM. The inhibition entry in test [14] and in [15] was “inactive” in each case.
